Assay results taken from US12202805B2, “Process for preparing (5S)-{[2-(4-carboxyphenyl)ethyl] |2-(2-{|3-chloro-4'-(trifluoromethyl)biphenyl-4-yl]methoxy}phenyl)ethyl]aminol-5,6,7,8-tetrahydroquinoline-2-carboxylic acid and its crystalline forms for use as pharmaceutically active compound” (Bayer Aktiengesellschaft, priority 2021, dated 2025).
“And” between values parts separate entries of the source, which are not always exact repeats. Equal entries are not always repeated.

System: thromboxane A2 challenged PAH-minipig
Test: Haemodynamics in the anesthetized thromboxane challenged minipig, intratracheal dry powder (PAP, BP)
Format: in vivo, Göttingen Minipigs
Protocol: Healthy Göttingen Minipigs® Ellegaard (Ellegaard, Denmark) of both sexes and having a weight of 2-6 kg were used. The animals were sedated by i.m. administration of about 25 mg/kg ketamine and about 10 mg/kg azaperone. Anaesthesia was initiated by i.v. administration of about 2 mg/kg ketamine and about 0.3 mg/kg midazolam. Maintenance of anaesthesia was by i.v. administration of about 7.5-30 mg/kg/h ketamine and about 1-4 mg/kg/h midazolam (rate of infusion 1-4 ml/kg/h) and about 150 μg/kg/h pancuronium bromide (for example Pancuronium-Actavis). After intubation, the animals were ventilated by the ventilator at a constant respiratory volume (10-12 ml/kg, 35 breaths/min; Avea®, Viasys Healthcare, USA, or Engström Carestation, GE Healthcare, Freiburg, Germany) such that an end-tidal CO2 concentration of about 5% was achieved. Ventilation was performed with room air, enriched with about 40% oxygen (normoxia). For the measurement of the haemodynamic parameters such as pulmonary arterial pressure (PAP), blood pressure (BP) and heart rate (HR), catheters were inserted into the carotid artery to measure the blood pressure, and a Swan-Ganz® catheter was introduced in a flow-directed manner via the jugular vein into the pulmonary artery. The haemodynamic signals were recorded and evaluated by means of pressure transducers (Combitransducer, B. Braun, Melsungen, Germany)/amplifiers and Ponemah® as data acquisition software.
As reference pure Lactose vehicle was applied in the beginning of each experiment.

## O.O=C(O)c1ccc(CCN(CCc2ccccc2OCc2ccc(-c3ccc(C(F)(F)F)cc3)cc2Cl)[C@H]2CCCc3nc(C(=O)O)ccc32)cc1.O=C(O)c1ccc(CCN(CCc2ccccc2OCc2ccc(-c3ccc(C(F)(F)F)cc3)cc2Cl)[C@H]2CCCc3nc(C(=O)O)ccc32)cc1 [example 6a, (5S)—{[2-(4-Carboxyphenyl)ethyl][2-(2-{[3-chloro-4′-(trifluoromethyl)biphenyl-4-yl]methoxy}phenyl)-ethyl]amino}-5,6,7,8-tetrahydroquinoline-2-carboxylic acid semihydrate]
375 μg/kg i.t., within the last hour of the observation interval
  systemic blood pressure: slightly affected
Micronized hydrates, 1.5 mg/4 kg (=375 μg/kg) i.t.
  efficacy with regard to PAP reduction as well as systemic BP reduction: comparable efficacy
Time 0 min, 375 μg/kg i.t.
  BP (mean): 101 mmHg and 85 mmHg
  PAP(mean): 39.6 mmHg and 40.8 mmHg and 38.5 mmHg
Time 10 min, 375 μg/kg i.t.
  BP (mean): 103 mmHg and 83 mmHg and 79 mmHg
  PAP(mean): 40.2 mmHg and 41.1 mmHg
Time 20 min, 375 μg/kg i.t.
  BP (mean): 101 mmHg and 83 mmHg and 84 mmHg
  PAP(mean): 40.4 mmHg and 41.3 mmHg
Time 30 min, 375 μg/kg i.t.
  BP (mean): 100 mmHg and 81 mmHg and 88 mmHg
  PAP(mean): 40.2 mmHg and 41.3 mmHg
Time 40 min, 375 μg/kg i.t.
  BP (mean): 98 mmHg and 81 mmHg and 90 mmHg
  PAP(mean): 40.4 mmHg and 41.8 mmHg and 41.0 mmHg
Time 50 min, 375 μg/kg i.t.
  BP (mean): 99 mmHg and 78 mmHg and 89 mmHg
  PAP(mean): 40.7 mmHg and 41.7 mmHg and 40.9 mmHg
Time 60 min, 375 μg/kg i.t.
  BP (mean): 100 mmHg and 79 mmHg and 86 mmHg
  BP, % changes vs. prevalues: 100.6% and 99.7% and 97.2%
  PAP(mean): 41.2 mmHg and 42.0 mmHg and 40.9 mmHg
  PAP, % changes vs. prevalues: 100.7% and 99.4% and 99.2%
Time 70 min, 375 μg/kg i.t.
  BP (mean): 102 mmHg and 78 mmHg and 87 mmHg
  BP, % changes vs. prevalues: 102.6% and 98.4%
  PAP(mean): 38.8 mmHg and 40.6 mmHg and 40.1 mmHg
  PAP, % changes vs. prevalues: 94.7% and 96.1% and 97.0%
Time 80 min, 375 μg/kg i.t.
  BP (mean): 102 mmHg and 79 mmHg and 90 mmHg
  BP, % changes vs. prevalues: 102.6% and 99.7% and 101.8%
  PAP(mean): 34.1 mmHg and 39.9 mmHg and 37.7 mmHg
  PAP, % changes vs. prevalues: 83.4% and 94.5% and 91.2%
Time 90 min, 375 μg/kg i.t.
  BP (mean): 101 mmHg and 81 mmHg and 92 mmHg
  BP, % changes vs. prevalues: 101.6% and 102.2% and 104.0%
  PAP(mean): 30.1 mmHg and 37.7 mmHg and 36.6 mmHg
  PAP, % changes vs. prevalues: 73.4% and 89.2% and 88.7%
Time 100 min, 375 μg/kg i.t.
  BP (mean): 100 mmHg and 80 mmHg and 95 mmHg
  BP, % changes vs. prevalues: 100.6% and 101.0% and 107.4%
  PAP(mean): 28.3 mmHg and 35.9 mmHg and 35.0 mmHg
  PAP, % changes vs. prevalues: 69.0% and 85.0% and 84.7%
Time 110 min, 375 μg/kg i.t.
  BP (mean): 99 mmHg and 79 mmHg
  BP, % changes vs. prevalues: 99.6% and 99.7% and 111.9%
  PAP(mean): 27.2 mmHg and 34.8 mmHg and 34.0 mmHg
  PAP, % changes vs. prevalues: 66.5% and 82.4% and 82.1%
Time 120 min, 375 μg/kg i.t.
  BP (mean): 99 mmHg and 79 mmHg and 96 mmHg
  BP, % changes vs. prevalues: 99.6% and 99.7% and 108.6%
  PAP(mean): 26.4 mmHg and 34.1 mmHg and 32.9 mmHg
  PAP, % changes vs. prevalues: 64.4% and 80.8% and 79.7%
Time 130 min, 375 μg/kg i.t.
  BP (mean): 98 mmHg and 81 mmHg and 97 mmHg
  BP, % changes vs. prevalues: 98.6% and 102.2% and 109.7%
  PAP(mean): 25.7 mmHg and 33.7 mmHg and 31.7 mmHg
  PAP, % changes vs. prevalues: 62.8% and 79.9% and 76.7%
Time 140 min, 375 μg/kg i.t.
  BP (mean): 99 mmHg and 82 mmHg and 98 mmHg
  BP, % changes vs. prevalues: 99.6% and 103.5% and 110.8%
  PAP(mean): 25.3 mmHg and 33.2 mmHg and 31.3 mmHg
  PAP, % changes vs. prevalues: 61.8% and 78.7% and 75.7%
Time 150 min, 375 μg/kg i.t.
  BP (mean): 97 mmHg and 82 mmHg
  BP, % changes vs. prevalues: 97.6% and 103.5% and 109.7%
  PAP(mean): 25.0 mmHg and 32.9 mmHg and 30.7 mmHg
  PAP, % changes vs. prevalues: 60.9% and 78.0% and 74.3%
Time 160 min, 375 μg/kg i.t.
  BP (mean): 96 mmHg and 81 mmHg and 97 mmHg
  BP, % changes vs. prevalues: 96.6% and 102.2% and 109.7%
  PAP(mean): 24.5 mmHg and 32.5 mmHg and 30.2 mmHg
